Reference: PubChem BioAssay (NCI)
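In this assay, cells in 96-well plates receive the compound at five concentrations for 48 hours. Endpoints are linearly interpolated between the surrounding concentrations. TGI: total growth inhibition.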

Columns and labels:
Test in all cases: DTP human tumour cell line panel, 48 h
786-0 renal = test system: 786-0 renal
ACHN renal = test system: ACHN renal
CCRF-CEM leukemia = test system: CCRF-CEM leukemia
EKVX NSCLC = test system: EKVX NSCLC
HCC-2998 colon = test system: HCC-2998 colon
IGROV1 ovarian = test system: IGROV1 ovarian
MALME-3M melanoma = test system: MALME-3M melanoma
MDA-MB-435 = test system: MDA-MB-435
NCI-H23 lung = test system: NCI-H23 lung
OVCAR-3 ovarian = test system: OVCAR-3 ovarian
PC-3 prostate = test system: PC-3 prostate
RXF 393 renal = test system: RXF 393 renal
SK-MEL-5 melanoma = test system: SK-MEL-5 melanoma
SN12C renal = test system: SN12C renal
TK-10 renal = test system: TK-10 renal
UACC-257 melanoma = test system: UACC-257 melanoma
UACC-62 melanoma = test system: UACC-62 melanoma
T-47D breast = test system: T-47D breast

Row | Compound | TGI (786-0 renal) [µM] | TGI (ACHN renal) [µM] | TGI (CCRF-CEM leukemia) [µM] | TGI (EKVX NSCLC) [µM] | TGI (HCC-2998 colon) [µM] | TGI (IGROV1 ovarian) [µM] | TGI (MALME-3M melanoma) [µM] | TGI (MDA-MB-435) [µM] | TGI (NCI-H23 lung) [µM] | TGI (OVCAR-3 ovarian) [µM] | TGI (PC-3 prostate) [µM] | TGI (RXF 393 renal) [µM] | TGI (SK-MEL-5 melanoma) [µM] | TGI (SN12C renal) [µM] | TGI (TK-10 renal) [µM] | TGI (UACC-257 melanoma) [µM] | TGI (UACC-62 melanoma) [µM] | TGI (T-47D breast) [µM]
1 | NC1=C(c2nc(-c3ccccc3)cs2)C(c2ccco2)c2c(c3ccccc3oc2=O)O1 (centres undefined) | > 100 | > 100 | > 100 | > 100 | > 100 | > 100 | > 100 | > 100 | > 100 | > 100 | > 100 | > 100 | > 100 | > 100 | > 100 | > 100 | > 100 | 
2 | CC(=O)n1c2ccc(Br)cc2c2nc3ccccc3nc21 | > 100 | > 100 | > 100 | > 100 | > 100 | > 100 | > 100 | > 100 | > 100 | > 100 | > 100 | > 100 | > 100 | > 100 | > 100 | > 100 | > 100 | 
3 | C/C=C1/C=CC2c3[nH]c4ccccc4c3CCN2C1 (centres undefined) | > 400 | > 400 | > 400 | > 400 | > 400 | > 400 | > 400 |  | > 400 | > 400 |  | > 400 | > 400 | > 400 | > 400 | > 400 | > 400 | 
4 | CC(=O)Nc1ccc2c(c1)C(=O)c1ccccc1-2 | > 100 | > 100 | > 100 | > 100 | > 100 | > 100 | > 100 |  | > 100 | > 100 |  | > 100 |  | > 100 | > 100 | > 100 | > 100 | 
5 | Cc1nn(C(=O)Cc2ccccc2)c2c1C(c1ccc(/C=C/c3ccccc3)cc1)SC(N)=N2 (centres undefined) | > 100 | > 100 | > 100 | > 100 | > 100 | > 100 | > 100 | > 100 | > 100 |  | > 100 |  | > 100 | > 100 | > 100 | > 100 | > 100 | > 100
6 | CCOC(=O)C1(C)CCC(C(=O)OC)C1=O (centres undefined) | > 100 | > 100 | 57.7 | > 100 | > 100 | > 100 | > 100 |  | > 100 | > 100 |  | > 100 | > 100 | > 100 | > 100 | > 100 | > 100 | 
7 | C(=NC12CC3CC(CC(C3)C1)C2)C1CCCCC1 | > 100 | > 100 | > 100 | > 100 | > 100 | > 100 | > 100 | > 100 | > 100 | > 100 | > 100 | > 100 | > 100 | > 100 | > 100 | > 100 | > 100 | 
8 | O=C(O)c1ccccc1/C=C1\Cc2cc3c(cc2C1=O)CCC3 | 70.5 | > 100 | 44.2 | > 100 | 68.3 | > 100 | > 100 | 51.5 | 58.8 | > 100 |  | 56.5 | 38.1 | 56.8 | 65.8 | 79.2 | 57.8 | 45.6
9 | CCN(CC)/[N+]([O-])=N/OS(=O)(=O)N(C)C | > 100 | > 100 | > 100 | > 100 | > 100 | > 100 | > 100 | > 100 | > 100 | > 100 |  | > 100 | > 100 | > 100 | > 100 | > 100 | > 100 | > 100
10 | Cc1[nH]c(=O)c2oc3cc4ccccc4cc3c2c1C(=O)O | > 10 | > 10 |  | > 10 | > 10 | > 10 | > 10 | > 10 | > 10 | > 10 | > 10 | > 10 |  | > 10 | > 10 | > 10 | > 10 | > 10
11 | COC(=O)N/N=c1\cc(C(=O)Nc2ccc(C)c(C)c2)oc2cc(O)ccc12 | > 100 | > 100 | > 100 | > 100 | > 100 | > 100 | > 100 |  | > 100 | > 100 |  | > 100 | > 100 | > 100 | > 100 | > 100 | > 100 | 
12 | c1ccc(C(NC2=NCCO2)C2CC2)cc1 (centres undefined) | > 100 | > 100 |  | > 100 | > 100 | > 100 | > 100 | > 100 | > 100 | > 100 | > 100 | > 100 | > 100 | > 100 | > 100 | > 100 | > 100 | > 100
13 | Cc1cccc(C)c1NC(=O)C(=O)CC(=O)c1sc(Nc2c(C)cccc2C)nc1C | > 100 | > 100 | > 100 | > 100 | > 100 | > 100 |  | > 100 | > 100 | > 100 | > 100 | > 100 |  | > 100 | > 100 | > 100 | > 100 | > 100
14 | C=C1CC[C@@H]2[C@](C)(COC(=O)CCC(=O)OC)CCC[C@@]2(C)[C@@H]1CCC1=CC(=O)OC1 | > 100 | > 100 | 58.8 | > 100 |  | > 100 | > 100 | > 100 | > 100 | > 100 | > 100 |  | > 100 | > 100 | > 100 | > 100 |  | 73
